# Columns and labels:
# [1] = tested on: Rhizoctonia solani; test: Test for controlling effect on sheath blight of rice; type: in vivo; conditions: 120 h, 200 ppm spray, 24 hours after inoculation, rice 4-leaf stage, five days after inoculation, read-out: Controlling effect (control of disease), Sheath blight of rice
# Protocol: 2-3 Test for controlling effect on sheath blight of rice (Rhizoctonia solani) Rice seedlings at the 4-leaf stage were inoculated with the mycelium of sheath blight of rice (Rhizoctonia solani). After 24 hours, a test medicine solution adjusted to 200 ppm was sprayed onto the seedlings. After air-drying, the seedlings were placed in a humid room for 24 hours where the temperature was kept at 28° C. and humidity was kept at 98%. Thereafter, the seedlings were transferred to a greenhouse, and five days after inoculation, the degree of infected area was examined. The control of disease was calculated by comparison with that in the untreated plot. The control of disease is shown as a controlling effect in the same manner as in Test Example 2-1.
# [2] = tested on: Gibberella fujikuroi ("Bakanae" disease of rice); test: Test for rice seed-disinfecting effect; type: in vivo; conditions: Fusarium fujikuroi, 504 h, seed immersion 25° C. 24 hours, three weeks after treatment, read-out: Controlling effect (control of disease), "Bakanae" disease of rice
# Protocol: 2-1 Test for rice seed-disinfecting effect
# Unhulled rice infected with Gibberella fujikuroi ("Bakanae" disease of rice) was immersed in a test compound adjusted to 1000 ppm at 25° C. for 24 hours. Water was lightly swished off the seed, which was then sowed and germinated for two days. Three weeks after treatment with the solution containing the compound, the rate of the infected seedlings was examined, and the control of disease was calculated by comparison with that of the untreated plot. The control of disease was shown as a controlling effect on the basis of the following standard.
# [3] = tested on: Pseudoperonospora cubensis; test: Test for controlling effect on downy mildew of cucumber; type: in vivo; conditions: 168 h, 200 ppm spray, one day before inoculation, cucumber 2-leaf stage, read-out: Controlling effect (control of disease), Downy mildew of cucumber
# Protocol: 2-2 Test for controlling effect on downy mildew of cucumber (Pseudoperonospora cubensis) A test compound adjusted to 200 ppm was sprayed onto cucumber at the 2-leaf stage cultivated in pots. After one day, the cucumber was inoculated by spraying the zoospore suspension of Pseudoperonospora cubensis. After inoculation, the cucumber was placed in a 25° C.-humid room for 1 day and then in a greenhouse for 6 days. Thus, the cucumber was made to be infected with downy mildew. The control of disease of the test compound is calculated by comparing the degree of infection of each leaf with that in the untreated plot. The control of disease is shown as a controlling effect in the same manner as in Test Example 2-1.
# [4] = tested on: Trichoderma viride; test: Test for wood rotting-preventing effect (mycelium growth inhibition on malt extract agar); type: cell-based; conditions: 28° C.±2° C., 2 to 10 days, read-out: Rotting preventing effect (mycelium growth-inhibitory rate), TRV
# Protocol: (§1) The following fungi were cultured in agar media, respectively, and mycelial disks on the media were stamped out together with the agar using a cork borer of 4 mm in diameter. The resulting mycelial disks on agar were used as an inoculum. Each test compound of 50 ppm was added to a malt extract agar medium and added in parts to Petri dishes. The above prepared inoculum was put on the Petri dishes and cultured at 28° C.±2° C. Two to ten days after inoculation, the diameter of the mycelial disk of each fungus was measured, and the mycelium growth-inhibitory rate was obtained according to the following equation. [formula] The mycelium growth-inhibitory rate (%) is indicated by the following symbols as a fungicidal effect on each fungus, and the results are shown in Table 2. | TRV: Trichoderma viride
# [5] = tested on: Aspergillus niger; test: as above; type: cell-based; conditions: 28° C.±2° C., 2 to 10 days, read-out: Rotting preventing effect (mycelium growth-inhibitory rate), ASN
# Protocol: as §1, with “ASN: Aspergillus niger” for “TRV: Trichoderma viride”
# [6] = tested on: Rhizopus nigricans; test: as above; type: cell-based; conditions: Rhizopus stolonifer, 28° C.±2° C., 2 to 10 days, read-out: Rotting preventing effect (mycelium growth-inhibitory rate), RHN
# Protocol: as §1, with “RHN: Rhizopus nigricans” for “TRV: Trichoderma viride”
# [7] = tested on: Tyromyces palustris; test: as above; type: cell-based; conditions: 28° C.±2° C., 2 to 10 days, read-out: Rotting preventing effect (mycelium growth-inhibitory rate), TYP
# Protocol: as §1, with “TYP: Tyromyces palustris” for “TRV: Trichoderma viride”
Structure (SMILES),pest or weed control at 200 ppm [1] [%],pest or weed control at 1000 ppm [2] [%],pest or weed control at 200 ppm [3] [%],inhibition at 50 ppm [4] [%],inhibition at 50 ppm [5] [%],inhibition at 50 ppm [6] [%],inhibition at 50 ppm [7] [%]
N#Cc1c(SCOCC#CI)nsc1SCOCC#CI [Compound 140],80 to 94,80 to 94,95 to 100,,,,
CCSc1snc(SCOCC#CI)c1C#N [Compound 129],,,,95 to 100,80 to 94,80 to 94,95 to 100
"CSc1snc(OCOC(C)(C)C#CI)c1C#N [Compound 100, 3-(3-iodo-l,l-dimethyl-2-propynyloxymethyloxy)-4-cyano-5-methylthioisothiazole]",95 to 100,95 to 100,95 to 100,95 to 100,80 to 94,80 to 94,95 to 100
COC(=O)Sc1snc(OCC#CI)c1C#N [Compound 20],60 to 79,80 to 94,95 to 100,95 to 100,80 to 94,60 to 79,95 to 100
CC(C)(C#CI)OCOc1nsc(S(C)(=O)=O)c1C#N [Compound 103],95 to 100,95 to 100,95 to 100,95 to 100,95 to 100,80 to 94,95 to 100
CCOc1snc(OCOC(C)C#CI)c1C#N (stereo not shown) [Compound 114],80 to 94,95 to 100,95 to 100,,,,
N#Cc1c(OCC#CI)nsc1SC1CCCC1 [Compound 7],,,,60 to 79,60 to 79,60 to 79,95 to 100
COCCSc1snc(OCC#CI)c1C#N [Compound 15],80 to 94,95 to 100,80 to 94,,,,
"COc1nsc(OCCC#CI)c1C#N [Compound 80, 3-methoxy-4-cyano-5-(4-iodo-3-butynyloxy)isothiazole]",80 to 94,95 to 100,95 to 100,95 to 100,95 to 100,95 to 100,95 to 100
"COc1nsc(SCOCC#CI)c1C#N [Compound 53, 3-methoxy-4-cyano-5-(3-iodo-2-propynyloxymethylthio)isothiazole]",95 to 100,95 to 100,95 to 100,95 to 100,95 to 100,80 to 94,95 to 100
C=CCSc1snc(OCC#CI)c1C#N [Compound 8],60 to 79,95 to 100,95 to 100,,,,
COCCOc1nsc(OCCC#CI)c1C#N [Compound 84],,,,95 to 100,95 to 100,95 to 100,95 to 100
CCS(=O)(=O)c1snc(OCOCC#CI)c1C#N [Compound 94],95 to 100,95 to 100,95 to 100,95 to 100,95 to 100,95 to 100,95 to 100
CC(OCC#CI)Sc1snc(OC(F)F)c1C#N (stereo not shown) [Compound 127],95 to 100,95 to 100,95 to 100,95 to 100,95 to 100,95 to 100,95 to 100
CCOc1nsc(SC(C)OCC#CI)c1C#N (stereo not shown) [Compound 126],,,,95 to 100,95 to 100,95 to 100,95 to 100
CSc1snc(OCOCC#CI)c1C#N [Compound 85],,,,95 to 100,95 to 100,95 to 100,95 to 100
COc1snc(OCOCC#CI)c1C#N [Compound 95],,,,95 to 100,95 to 100,95 to 100,95 to 100
CC(C)Sc1snc(OCCC#CI)c1C#N [Compound 72],,,,95 to 100,95 to 100,95 to 100,95 to 100
C=CCSc1snc(SCOCC#CI)c1C#N [Compound 132],,,,95 to 100,95 to 100,95 to 100,95 to 100
CCCCN(C)c1snc(OCC#CI)c1C#N [Compound 32],60 to 79,80 to 94,95 to 100,,,,
N#Cc1c(OCC#CI)nsc1SCOCC#CI [Compound 142],,,,95 to 100,95 to 100,95 to 100,95 to 100
N#Cc1c(OCC#CI)nsc1S(=O)(=O)C1CCCC1 [Compound 46],,,,60 to 79,80 to 94,60 to 79,95 to 100
N#CCSc1snc(OCC#CI)c1C#N [Compound 17],95 to 100,95 to 100,95 to 100,,,,
C#CCSc1snc(OCC#CI)c1C#N [Compound 10],,,,80 to 94,95 to 100,80 to 94,95 to 100
CC(C)Oc1snc(OCOCC#CI)c1C#N [Compound 98],,,,95 to 100,95 to 100,95 to 100,95 to 100
CCSc1snc(OCC#CI)c1C#N [Compound 2],,,,80 to 94,60 to 79,80 to 94,95 to 100
CCCSc1snc(OCOCC#CI)c1C#N [Compound 87],,,,95 to 100,95 to 100,95 to 100,95 to 100
C=CC[S+]([O-])c1snc(OCC#CI)c1C#N (stereo not shown) [Compound 47],95 to 100,95 to 100,80 to 94,,,,
CC(C)Oc1nsc(OCC#CI)c1C#N [Compound 51],,,,95 to 100,95 to 100,95 to 100,95 to 100

# Source: patent US5578622A, “Isothiazole derivatives and their uses” (Asamura Patent Office, priority 1994, dated 1996)
